# Results taken from the kinase profiling compilation of Christmann-Franck et al. (2016).
# Columns and labels:
# Assay in all cases: radiometric filter-binding kinase assay, Kinaseprofiler
# [1] = tested on: TEK (human), Q02763 [Q939H/Q940H]; settings: ATP 200 µM
# [2] = tested on: AKT1 (human), P31749 [S478G]; settings: ATP 155 µM
# [3] = tested on: GSK3A (human), P49840 [S449A]; settings: ATP 10 µM
# [4] = tested on: TAOK3 (human), Q9H2K8 [N47S]; settings: ATP 15 µM
# [5] = tested on: SGK2 (human), Q9HBY8 [S416D]; settings: ATP 15 µM
# Chain of SGK2 (human), Q9HBY8 [S416D] (Q9HBY8 whole entry, looked up, stated change not applied): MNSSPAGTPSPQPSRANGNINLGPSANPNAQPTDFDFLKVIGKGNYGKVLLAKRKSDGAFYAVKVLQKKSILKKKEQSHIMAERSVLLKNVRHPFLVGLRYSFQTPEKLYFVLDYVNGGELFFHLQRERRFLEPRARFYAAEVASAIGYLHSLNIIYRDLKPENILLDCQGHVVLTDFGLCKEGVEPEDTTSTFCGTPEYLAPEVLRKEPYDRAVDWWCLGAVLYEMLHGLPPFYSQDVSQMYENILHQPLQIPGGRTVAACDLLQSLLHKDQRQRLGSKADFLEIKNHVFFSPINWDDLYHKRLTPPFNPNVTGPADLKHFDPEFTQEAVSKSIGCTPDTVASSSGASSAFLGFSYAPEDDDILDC
# CDK2 CCNA2 (human) = CDK2 CCNA2 (human) (UniProt P24941+P20248); settings: ATP 45 µM
# [6] = target: PRKAA2 PRKAB1 PRKAG1 (human) (UniProt P54619+P54646+Q9Y478); settings: ATP 45 µM
# Chain of PRKAA2 PRKAB1 PRKAG1 (human) (P54619 whole entry, looked up): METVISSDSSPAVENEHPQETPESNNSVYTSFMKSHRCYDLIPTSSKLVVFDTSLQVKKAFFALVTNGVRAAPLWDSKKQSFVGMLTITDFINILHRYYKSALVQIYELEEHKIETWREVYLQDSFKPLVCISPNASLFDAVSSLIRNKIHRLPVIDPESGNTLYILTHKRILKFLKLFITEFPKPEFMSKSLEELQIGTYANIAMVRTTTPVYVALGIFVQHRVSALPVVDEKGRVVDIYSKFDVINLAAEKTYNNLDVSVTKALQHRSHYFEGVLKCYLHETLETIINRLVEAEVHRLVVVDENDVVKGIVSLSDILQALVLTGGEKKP
# Chain of PRKAA2 PRKAB1 PRKAG1 (human) (P54646 whole entry, looked up): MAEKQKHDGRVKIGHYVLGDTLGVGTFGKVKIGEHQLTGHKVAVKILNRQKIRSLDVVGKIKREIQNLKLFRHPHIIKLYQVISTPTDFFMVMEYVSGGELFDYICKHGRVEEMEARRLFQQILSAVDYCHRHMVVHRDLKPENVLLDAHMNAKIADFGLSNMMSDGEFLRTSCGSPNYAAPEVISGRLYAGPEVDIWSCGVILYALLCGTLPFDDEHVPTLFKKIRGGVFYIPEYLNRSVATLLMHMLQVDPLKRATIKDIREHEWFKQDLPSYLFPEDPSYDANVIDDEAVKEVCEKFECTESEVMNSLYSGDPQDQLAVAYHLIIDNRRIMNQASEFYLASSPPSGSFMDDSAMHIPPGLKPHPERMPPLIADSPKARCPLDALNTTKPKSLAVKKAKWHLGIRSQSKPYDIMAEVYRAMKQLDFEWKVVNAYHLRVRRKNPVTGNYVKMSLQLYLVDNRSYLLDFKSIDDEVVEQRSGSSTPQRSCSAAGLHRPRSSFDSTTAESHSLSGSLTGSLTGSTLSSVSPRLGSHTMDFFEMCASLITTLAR
# Chain of PRKAA2 PRKAB1 PRKAG1 (human) (Q9Y478 whole entry, looked up): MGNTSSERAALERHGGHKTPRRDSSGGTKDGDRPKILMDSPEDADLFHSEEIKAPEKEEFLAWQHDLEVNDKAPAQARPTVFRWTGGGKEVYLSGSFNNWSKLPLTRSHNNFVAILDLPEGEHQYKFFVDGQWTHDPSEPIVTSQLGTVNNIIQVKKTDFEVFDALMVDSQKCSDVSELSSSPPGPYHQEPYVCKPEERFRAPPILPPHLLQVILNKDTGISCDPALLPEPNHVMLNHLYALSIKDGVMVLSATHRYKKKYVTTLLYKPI
# CDK7 CCNH MNAT1 (human) = CDK7 CCNH MNAT1 (human) (UniProt P50613+P51948+P51946); settings: ATP 90 µM
# Chain of CDK7 CCNH MNAT1 (human) (P50613 whole entry, looked up): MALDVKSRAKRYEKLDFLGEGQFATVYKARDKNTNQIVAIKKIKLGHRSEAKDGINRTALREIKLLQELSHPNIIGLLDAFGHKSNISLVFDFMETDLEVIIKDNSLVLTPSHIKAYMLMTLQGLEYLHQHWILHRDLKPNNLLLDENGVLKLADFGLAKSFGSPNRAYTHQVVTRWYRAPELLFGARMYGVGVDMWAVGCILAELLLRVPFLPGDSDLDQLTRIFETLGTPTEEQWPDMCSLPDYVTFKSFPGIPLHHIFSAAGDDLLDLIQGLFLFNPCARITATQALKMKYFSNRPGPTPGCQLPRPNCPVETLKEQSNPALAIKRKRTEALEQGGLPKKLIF
# Chain of CDK7 CCNH MNAT1 (human) (P51946 whole entry, looked up): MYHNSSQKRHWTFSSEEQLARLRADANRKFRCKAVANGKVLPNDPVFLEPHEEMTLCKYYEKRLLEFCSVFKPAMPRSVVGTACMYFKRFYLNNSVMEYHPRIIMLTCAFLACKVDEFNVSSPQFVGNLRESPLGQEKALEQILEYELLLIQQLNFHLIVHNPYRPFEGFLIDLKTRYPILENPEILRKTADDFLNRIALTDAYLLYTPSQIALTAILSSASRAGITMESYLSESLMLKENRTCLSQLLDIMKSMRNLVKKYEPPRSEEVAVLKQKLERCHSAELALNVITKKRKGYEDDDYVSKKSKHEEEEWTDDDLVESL
# Chain of CDK7 CCNH MNAT1 (human) (P51948 whole entry, looked up): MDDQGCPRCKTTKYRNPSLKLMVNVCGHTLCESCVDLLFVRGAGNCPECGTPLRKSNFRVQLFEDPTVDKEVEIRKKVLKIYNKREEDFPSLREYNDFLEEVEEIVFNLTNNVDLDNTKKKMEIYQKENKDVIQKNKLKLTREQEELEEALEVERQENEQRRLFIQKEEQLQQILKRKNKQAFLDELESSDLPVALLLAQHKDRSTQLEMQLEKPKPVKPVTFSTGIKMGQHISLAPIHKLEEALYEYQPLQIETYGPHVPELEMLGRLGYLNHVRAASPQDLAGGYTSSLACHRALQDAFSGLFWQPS
# CDK3 CCNE1 (human) = CDK3 CCNE1 (human) (UniProt Q00526+P24864); settings: ATP 200 µM
# Chain of CDK3 CCNE1 (human) (P24864 whole entry, looked up): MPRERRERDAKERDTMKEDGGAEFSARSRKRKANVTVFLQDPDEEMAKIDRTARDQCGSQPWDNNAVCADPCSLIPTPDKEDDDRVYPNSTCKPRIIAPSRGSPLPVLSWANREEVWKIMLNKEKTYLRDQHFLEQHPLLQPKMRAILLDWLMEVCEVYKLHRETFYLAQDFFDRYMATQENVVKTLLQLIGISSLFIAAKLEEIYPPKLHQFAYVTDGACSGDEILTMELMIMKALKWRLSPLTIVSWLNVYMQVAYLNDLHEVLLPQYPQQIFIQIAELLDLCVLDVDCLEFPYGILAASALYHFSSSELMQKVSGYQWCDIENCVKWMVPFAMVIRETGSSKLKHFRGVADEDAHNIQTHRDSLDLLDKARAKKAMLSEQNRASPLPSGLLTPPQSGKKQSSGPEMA
# Chain of CDK3 CCNE1 (human) (Q00526 whole entry, looked up): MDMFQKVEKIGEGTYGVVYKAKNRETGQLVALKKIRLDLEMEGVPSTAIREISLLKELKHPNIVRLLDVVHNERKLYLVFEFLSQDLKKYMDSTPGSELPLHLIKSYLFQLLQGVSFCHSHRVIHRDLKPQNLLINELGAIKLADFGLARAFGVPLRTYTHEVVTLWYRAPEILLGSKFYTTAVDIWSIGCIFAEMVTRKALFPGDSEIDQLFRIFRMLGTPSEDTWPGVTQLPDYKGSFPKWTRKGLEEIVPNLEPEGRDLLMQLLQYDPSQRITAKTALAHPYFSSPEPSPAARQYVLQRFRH
# MTOR FKBP1A (human) = MTOR FKBP1A (human) (UniProt P42345+P62942); settings: ATP 45 µM
# CDK2 CCNE1 (human) = CDK2 CCNE1 (human) (UniProt P24941+P24864); settings: ATP 120 µM
# Chain of CDK2 CCNE1 (human) (P24864 whole entry, looked up, other chains not shown): as the sequence (P24864 whole entry, looked up) above
# Chain of TEK (human), Q02763 [Q939H/Q940H] (Q02763 whole entry Q939H/Q940H, looked up): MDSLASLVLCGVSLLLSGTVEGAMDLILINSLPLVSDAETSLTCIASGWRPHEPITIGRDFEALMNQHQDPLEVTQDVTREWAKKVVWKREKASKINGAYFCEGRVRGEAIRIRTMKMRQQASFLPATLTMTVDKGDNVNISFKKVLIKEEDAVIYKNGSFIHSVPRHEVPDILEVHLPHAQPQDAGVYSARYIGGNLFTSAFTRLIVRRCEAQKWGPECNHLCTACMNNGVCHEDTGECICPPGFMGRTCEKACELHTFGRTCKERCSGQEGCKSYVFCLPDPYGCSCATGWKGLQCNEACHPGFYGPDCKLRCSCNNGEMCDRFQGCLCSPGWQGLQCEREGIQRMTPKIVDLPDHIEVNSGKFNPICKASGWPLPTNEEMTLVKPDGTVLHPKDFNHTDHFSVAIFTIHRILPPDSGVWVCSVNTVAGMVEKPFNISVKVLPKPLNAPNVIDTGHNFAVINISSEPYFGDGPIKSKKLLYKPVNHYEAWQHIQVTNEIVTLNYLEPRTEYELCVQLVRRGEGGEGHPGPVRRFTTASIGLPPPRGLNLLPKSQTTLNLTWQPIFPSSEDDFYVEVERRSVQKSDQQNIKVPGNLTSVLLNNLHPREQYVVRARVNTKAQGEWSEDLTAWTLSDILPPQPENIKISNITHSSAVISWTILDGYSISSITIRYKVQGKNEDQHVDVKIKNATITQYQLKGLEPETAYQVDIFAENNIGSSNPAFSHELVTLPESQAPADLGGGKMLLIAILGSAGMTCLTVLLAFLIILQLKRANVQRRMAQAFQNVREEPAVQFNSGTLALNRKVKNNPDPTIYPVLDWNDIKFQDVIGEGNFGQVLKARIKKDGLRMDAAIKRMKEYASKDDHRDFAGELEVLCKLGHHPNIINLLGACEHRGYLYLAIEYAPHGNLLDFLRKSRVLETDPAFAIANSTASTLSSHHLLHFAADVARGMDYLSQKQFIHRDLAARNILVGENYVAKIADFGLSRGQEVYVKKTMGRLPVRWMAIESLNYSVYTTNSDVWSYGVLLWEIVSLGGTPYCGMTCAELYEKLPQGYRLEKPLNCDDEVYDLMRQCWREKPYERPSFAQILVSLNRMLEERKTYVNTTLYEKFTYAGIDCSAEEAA
# Chain of AKT1 (human), P31749 [S478G] (P31749 whole entry, looked up, stated change not applied): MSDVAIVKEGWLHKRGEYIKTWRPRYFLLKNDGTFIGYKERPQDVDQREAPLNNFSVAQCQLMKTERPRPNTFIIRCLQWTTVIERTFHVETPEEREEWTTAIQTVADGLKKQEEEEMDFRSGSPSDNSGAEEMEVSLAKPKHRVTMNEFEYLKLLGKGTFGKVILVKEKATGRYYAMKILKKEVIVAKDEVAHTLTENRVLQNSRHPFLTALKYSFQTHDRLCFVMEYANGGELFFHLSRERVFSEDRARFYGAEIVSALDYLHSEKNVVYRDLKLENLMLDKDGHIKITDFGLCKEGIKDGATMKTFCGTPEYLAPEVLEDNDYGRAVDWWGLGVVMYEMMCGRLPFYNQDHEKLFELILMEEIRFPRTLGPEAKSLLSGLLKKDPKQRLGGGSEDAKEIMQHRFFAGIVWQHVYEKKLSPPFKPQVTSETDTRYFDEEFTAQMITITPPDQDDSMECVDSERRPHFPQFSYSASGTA
compound,measurement,setting,value
O=C(Nc1cccc(Nc2nccc(Nc3cccc(C(F)(F)F)c3)n2)c1)C1CC1,residual activity,[1]; compound 10.0 µM,17%
O=C1Nc2ccccc2/C1=C1\Nc2ccccc2\C1=N/O,residual activity,[2]; compound 1.0 µM,107%
same,residual activity,[2]; compound 10.0 µM,98%
same,residual activity,[3]; compound 1.0 µM,5%
same,residual activity,[3]; compound 10.0 µM,1%
same,residual activity,[4]; compound 1.0 µM,85%
same,residual activity,[4]; compound 10.0 µM,28%
same,residual activity,[5]; compound 1.0 µM,61%
same,residual activity,[5]; compound 10.0 µM,24%
same,residual activity,[1]; compound 1.0 µM,103%
same,residual activity,[1]; compound 10.0 µM,41%
CO[C@H]1CC2CC[C@@H](C)[C@@](O)(O2)C(=O)C(=O)N2CCCC[C@H]2C(=O)OC([C@H](C)C[C@@H]2CC[C@@H](O)[C@H](OC)C2)CC(=O)[C@H](C)/C=C(\C)[C@@H](O)[C@@H](OC)C(=O)[C@H](C)C[C@H](C)/C=C/C=C/C=C/1C (stereo partly drawn),residual activity,CDK2 CCNA2 (human); compound 1.0 µM,129%
same,residual activity,CDK2 CCNA2 (human); compound 10.0 µM,113%
same,residual activity,[6]; compound 1.0 µM,93%
same,residual activity,[6]; compound 10.0 µM,107%
same,residual activity,CDK7 CCNH MNAT1 (human); compound 1.0 µM,88%
same,residual activity,CDK7 CCNH MNAT1 (human); compound 10.0 µM,94%
same,residual activity,CDK3 CCNE1 (human); compound 1.0 µM,90%
same,residual activity,CDK3 CCNE1 (human); compound 10.0 µM,86%
same,residual activity,MTOR FKBP1A (human); compound 1.0 µM,-17%
same,residual activity,MTOR FKBP1A (human); compound 10.0 µM,4%
same,residual activity,CDK2 CCNE1 (human); compound 1.0 µM,105%
same,residual activity,CDK2 CCNE1 (human); compound 10.0 µM,96%
